Experimental data taken from publication PMC8358040, “The enzymatic activity of inositol hexakisphosphate kinase controls circulating phosphate in mammals” (Nature Communications, 2021).
“And” between values parts separate entries of the source, which are not always exact repeats. Equal entries are not always repeated.

Legend:
[1] = system: phosphate excretion in faeces; assay: Cumulative 32P activity in faeces of rats administered NaH2 32PO4; assay type: in vivo, rat; conditions: for Cumulative 32P activity in the faeces: lanthanum carbonate 1000 mg/kg 7th dose
Protocol: (§1) The experiment was performed using 8-week-old SD rats (CLEA Japan, Inc.). Male rats were randomly sorted into different groups based on their body weight (n = 5). […] After a 1 h treatment, NaH2^32PO4 solution (11 μCi/2 mL/rat) was administered orally. Following NaH2^32PO4 administration, rats were placed in metabolic cages, and faeces and urine were collected up to 72 h later. The compound was administered once a day during the 72 h experiment. […] The radioactivity (%) in the faecal and urine samples was calculated by setting the radioactivity of the administered NaH2^32PO4 to 100 %.

[2] = system: phosphate excretion in urine; assay: Cumulative 32P activity in urine of rats administered NaH2 32PO4; assay type: in vivo, rat; conditions: lanthanum carbonate 1000 mg/kg 7th dose
Protocol: as §1

[3] = Plasma concentration of SC-919, single-dose study in normal rats; assay type: in vivo, rat
Protocol: The experiment was performed with 8-week-old male SD rats (CLEA Japan, Inc.). […] The concentration of the compound in the plasma was measured at the same timepoints (n = 3).

[4] = Plasma concentration of SC-919 in adenine-treated rats (sub-chronic dose study)
[5] = Plasma concentration of SC-919 in bilaterally nephrectomized rats; assay type: in vivo, rat; conditions: bilaterally nephrectomised rats, 0.3 mg/kg oral, 5 h, individual animals (Fig4e)
Protocol: The experiment was performed with 9-week-old male SD rats (CLEA Japan, Inc.). For bilateral nephrectomy, rats were fasted for 16 h and were subcutaneously injected with buprenorphine (0.05 mg/kg, Otsuka). Thirty minutes later, the rats were anesthetized using isoflurane (3% v/v) and kept on thermal pads at 37 °C with isoflurane (2% v/v). The left and right abdomen and the neck were shaved with a clipper. The surgical site was disinfected with a chlorhexidine-containing antiseptic solution, and the aesthetic state was confirmed by the disappearance of the pain reflex. The skin was incised to expose the kidney, and the renal artery and vein were ligated, which was followed by the isolation of the kidney. […] A sham operation group (n = 6), without nephrectomy, was prepared following the same procedure. After completion of the operation, meloxicam (1 mg/kg) was subcutaneously administered once a day during the study. One day after the operation, anaesthesia was introduced using the procedure described above, and blood was collected from the jugular vein.

[6] = Plasma concentration of SC-919, single-dose study in normal monkeys; assay type: in vivo, cynomolgus monkey; conditions: 0.3 mg/kg oral, time 1, individual animals (Fig3c)
Protocol: The experiments were performed at Hamamatsu Pharma Research, Inc. (Hamamatsu, Shizuoka, Japan), which is accredited by the American Association for Accreditation of Laboratory Animal Care. Male cynomolgus monkeys were housed in a room with controlled temperature, humidity, and lighting (12 h light/dark cycle). All monkeys were fed a regular diet (100 g/day, PS-A, Oriental Yeast Co., Ltd.) and had free access to tap water. The experiments were performed when the animals were 3–4 years old. The monkeys were randomized into different groups based on plasma phosphate, body weight (2.6–4.7 kg), and age (n = 6). Corn oil (FUJIFILM Wako) was used as a vehicle. […] Blood was collected from the cephalic vein, saphenous vein, or the femoral vein using a disposable syringe and needle at the indicated timepoints for the measurement of phosphate levels in the plasma. The concentration of the compound in the plasma was measured at the same timepoints (n = 6).

human IP6K1 = target: T1, human IP6K1 (Homo sapiens, UniProt Q92551); assay: ADP-Glo kinase assay for IP6K activity; assay type: biochemical; conditions: recombinant human IP6K1 15 nM, ATP 15 μM, InsP6 50 μM, 2 h; mean ± S.D.
T1 construct: made in house; host or cells: Sf9 insect cells (baculovirus)
T1 sequence (Q92551 whole entry): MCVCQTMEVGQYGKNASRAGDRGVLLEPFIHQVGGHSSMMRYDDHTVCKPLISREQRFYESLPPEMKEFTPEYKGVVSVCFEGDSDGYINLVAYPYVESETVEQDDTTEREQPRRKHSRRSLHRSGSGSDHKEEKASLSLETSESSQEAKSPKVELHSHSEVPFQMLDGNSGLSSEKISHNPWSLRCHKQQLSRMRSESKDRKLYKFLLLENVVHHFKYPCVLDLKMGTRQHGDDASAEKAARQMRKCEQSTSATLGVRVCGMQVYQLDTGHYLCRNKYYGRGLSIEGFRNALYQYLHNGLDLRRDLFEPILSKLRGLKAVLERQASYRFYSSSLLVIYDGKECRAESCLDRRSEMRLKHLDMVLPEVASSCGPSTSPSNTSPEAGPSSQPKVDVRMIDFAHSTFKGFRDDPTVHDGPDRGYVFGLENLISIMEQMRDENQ

human IP6K3 = target: T2, human IP6K3 (Homo sapiens, UniProt Q96PC2); assay: ADP-Glo kinase assay for IP6K activity; conditions: read-out: IC50 IP6K3; recombinant human IP6K3 […], ATP 15 μM, InsP6 50 μM, 2 h; mean ± S.D.
T2 sequence (Q96PC2 1-410): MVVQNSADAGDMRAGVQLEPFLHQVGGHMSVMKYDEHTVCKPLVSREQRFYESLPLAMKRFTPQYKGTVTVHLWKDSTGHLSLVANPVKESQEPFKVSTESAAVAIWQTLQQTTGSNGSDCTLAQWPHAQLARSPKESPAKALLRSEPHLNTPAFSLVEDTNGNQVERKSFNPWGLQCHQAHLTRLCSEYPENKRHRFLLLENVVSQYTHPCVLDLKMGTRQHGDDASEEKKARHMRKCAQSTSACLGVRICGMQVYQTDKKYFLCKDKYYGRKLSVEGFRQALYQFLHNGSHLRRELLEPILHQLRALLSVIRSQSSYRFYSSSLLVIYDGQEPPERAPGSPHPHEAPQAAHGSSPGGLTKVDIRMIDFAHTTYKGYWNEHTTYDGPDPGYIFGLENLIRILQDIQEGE

human IP6K2 = target: T3, human IP6K2 (Homo sapiens, UniProt Q9UHH9); assay: ADP-Glo kinase assay for IP6K activity; conditions: read-out: IC50 IP6K2; recombinant human IP6K2 12 nM, ATP 15 μM, InsP6 50 μM, 2 h; mean ± S.D.
T3 sequence (Q9UHH9 1-426): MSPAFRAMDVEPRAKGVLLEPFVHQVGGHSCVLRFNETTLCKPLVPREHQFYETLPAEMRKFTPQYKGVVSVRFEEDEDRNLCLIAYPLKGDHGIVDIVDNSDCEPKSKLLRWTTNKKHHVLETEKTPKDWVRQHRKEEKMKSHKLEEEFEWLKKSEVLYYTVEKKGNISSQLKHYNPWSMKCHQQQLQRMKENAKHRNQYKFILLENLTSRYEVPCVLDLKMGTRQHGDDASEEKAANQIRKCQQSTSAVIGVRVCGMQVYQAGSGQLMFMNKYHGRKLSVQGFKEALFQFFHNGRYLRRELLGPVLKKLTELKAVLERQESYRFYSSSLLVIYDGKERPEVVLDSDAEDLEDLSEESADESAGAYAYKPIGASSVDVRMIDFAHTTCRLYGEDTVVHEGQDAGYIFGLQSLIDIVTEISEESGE

O=C([O-])[O-].O=C([O-])[O-].O=C([O-])[O-].[La+3].[La+3] [Lanthanum carbonate]
32P activity / phosphate excretion in faeces vs vehicle ([1]; in words): increased | Cumulative 32P activity in the faeces ([1]; 48 h (Fig3f)): 53.2569% and 73.3985% and 64.9027% and 66.783% and 73.7253% | Cumulative 32P activity in the faeces ([1]; 72 h (Fig3f)): 53.7862% and 74.2778% and 65.7229% and 68.7476% and 74.3353% | Cumulative 32P activity in the urine ([2]; 8 h (Fig3g)): 0.04647% and 0.2136% and 1.254% and 0.632% and 0.6628% | Cumulative 32P activity in the urine ([2]; 24 h (Fig3g)): 0.658% and 2.356% and 3.626% and 2.673% and 3.04% | Cumulative 32P activity in the urine ([2]; 48 h (Fig3g)): 0.8554% and 3.259% and 4.427% and 3.818% and 3.918% | Cumulative 32P activity in the urine ([2]; 72 h (Fig3g)): 1.078% and 3.901% and 5.067% and 4.576% and 4.362%

O=C(O)c1ccc2c(c1)[C@]1(CC[C@H](Oc3ncc(Cl)cc3Cl)CC1)C(=O)N2 [SC-919]
Free SC-919 levels ([3]; animal studies using rats and monkeys, reviewer response): below 0.05 μM | Plasma concentration of SC-919 ([3]; normal rats, 1 mg/kg oral, time 1, individual animals (Fig3a), 1 mg/kg): 1942.907 and 1856.710 and 1476.530 | Plasma concentration of SC-919 ([3]; normal rats, 1 mg/kg oral, time 2 (Fig3a), 1 mg/kg): 2011.947 and 2121.932 and 1778.126 | Plasma concentration of SC-919 ([3]; normal rats, 1 mg/kg oral, time 4 (Fig3a), 1 mg/kg): 2195.083 and 2444.564 and 1949.961 | Plasma concentration of SC-919 ([3]; normal rats, 1 mg/kg oral, time 8 (Fig3a), 1 mg/kg): 1948.434 and 2469.995 and 1783.145 | Plasma concentration of SC-919 ([3]; normal rats, 3 mg/kg oral, time 1 (Fig3a), 3 mg/kg): 4153.987 and 3662.163 and 4004.199 | Plasma concentration of SC-919 ([3]; normal rats, 3 mg/kg oral, time 2 (Fig3a), 3 mg/kg): 5074.332 and 4401.713 and 4372.837 | Plasma concentration of SC-919 ([3]; normal rats, 3 mg/kg oral, time 4 (Fig3a), 3 mg/kg): 5790.125 and 5489.252 and 5879.739 | Plasma concentration of SC-919 ([3]; normal rats, 3 mg/kg oral, time 8 (Fig3a), 3 mg/kg): 6166.814 and 6363.863 and 4651.047 | Plasma concentration of SC-919 ([3]; normal rats, 10 mg/kg oral, time 1 (Fig3a), 10 mg/kg): 11886.470 and 10328.550 and 8429.354 | Plasma concentration of SC-919 ([3]; normal rats, 10 mg/kg oral, time 2 (Fig3a), 10 mg/kg): 13647.120 and 11744.460 and 11378.370 | Plasma concentration of SC-919 ([3]; normal rats, 10 mg/kg oral, time 4 (Fig3a), 10 mg/kg): 14060.780 and 13051.160 and 10832.720 | Plasma concentration of SC-919 ([3]; normal rats, 10 mg/kg oral, time 8 (Fig3a), 10 mg/kg): 14559.520 and 13008.450 and 10214.420 | Plasma concentration of SC-919 ([3]; normal rats, 10 mg/kg oral, time 24 (Fig3a), 10 mg/kg): 14337.480 and 9820.569 and 8024.378 | Plasma SC-919 concentrations ([3]; normal rats, oral administration, in words): increased in a dose-dependent manner | Concentration of SC-919 (plasma) ([4]; 1 mg/kg oral, initial dose, time 2, individual animals (Fig4a), 1 mg/kg): 928.621 and 807.664 and 876.622 | Concentration of SC-919 (plasma) ([4]; 1 mg/kg, initial dose, time 6 (Fig4a)): 850.061 and 949.996 and 720.403 | Concentration of SC-919 (plasma) ([4]; 1 mg/kg, seventh dose, time 2 (Fig4c)): 2909.926 and 3195.472 and 1783.864 | Concentration of SC-919 (plasma) ([4]; 1 mg/kg, seventh dose, time 6 (Fig4c)): 2957.483 and 3182.718 and 1810.036 | Concentration of SC-919 (plasma) ([4]; 1 mg/kg, seventh dose, time 24 (Fig4c)): 2238.331 and 2202.619 and 1356.448 | Concentration of SC-919 (plasma) ([4]; 10 mg/kg, initial dose, time 2 (Fig4a)): 5701.725 and 5986.890 and 6856.247 | Concentration of SC-919 (plasma) ([4]; 10 mg/kg, initial dose, time 6 (Fig4a)): 4444.794 and 6665.965 and 6592.043 | Concentration of SC-919 (plasma) ([4]; 10 mg/kg, initial dose, time 24 (Fig4a)): 2595.707 and 5143.151 and 4143.702 | Concentration of SC-919 (plasma) ([4]; 10 mg/kg, seventh dose, time 2 (Fig4c)): 8573.125 and 12574.890 and 8591.283 | Concentration of SC-919 (plasma) ([4]; 10 mg/kg, seventh dose, time 6 (Fig4c)): 7820.236 and 14817.670 and 9035.189 | Concentration of SC-919 (plasma) [5]: 541.632 and 264.446 and 202.061 and 200.786 and 379.989 and 301.737 and 410.34 | Concentration of SC-919 in plasma [6]: 40.468 and 0.000 and 7.073 and 24.376 and 2.454 and 13.910

O=[N+]([O-])c1ccc(CNc2nc(NCc3cccc(C(F)(F)F)c3)nc3nc[nH]c23)cc1 [TNP, N2-(m-(trifluoromethyl)benzyl) N6-(p-nitrobenzyl)purine]
IC50 (human IP6K1): 0.27 ± 0.1 µM | IC50 (human IP6K3): 0.26 ± 0.021 µM | IC50 (human IP6K2): 0.85 ± 0.33 µM
